Values after ≈ are worked out from the molar mass of the structure shown. Values joined by “and” are separate entries in the source; they are usually repeats but may differ in a detail not shown here. Equal entries are not always repeated. Each block holds one compound with its values, some of them ahead of it.
Columns and labels:
[1] = tested on: GM-CSF release, A549 cells; assay: GM-CSF release from A549 cells (ELISA)
Procedure: GM-CSF ELISA: Determination of GM-CSF expression was measured by sandwich ELISA (Pharmingen, Lugano, Switzerland) according to the manufacturer's instructions.

HDAC activity = assay: Direct effect on HDAC activity of nuclear proteins from untreated A549 cells; assay type: biochemical; conditions: for direct effect on HDAC activity: nuclear extracts, IBMX 500 μM, rolipram 10 μM, CGS-15943 10 μM; for effect on theophylline-induced increased HDAC activity: inhibitor 1 μM
Procedure: FIG. 13. […] (a) Direct effect of the PDE4 inhibitor rolipram (10 μM) and the adenosine receptor antagonist CGS-15943 (10 μM) on HDAC activity. […] (b) Direct effect of the MEK inhibitor PD089159 (1 μM) and the p38 MAPK inhibitor SB203580 on theophylline induced HDAC activity.

HAT activity = assay: Direct effect on HAT activity; assay type: biochemical; conditions: IBMX 500 μM, rolipram 10 μM, CGS-15943 10 μM
[2] = tested on: histone acetylation, A549 cells; assay: Histone acetylation, [3H]-acetate incorporation in whole A549 cells; assay type: cell-based
Excerpt: Histones were isolated and separated by SDS-PAGE and [^3H]-acetate incorporated histones were counted and normalised to protein level. […] Data represents mean±SEM of 3 independent experiments. **p<0.01.

[3] = tested on: histone deacetylase (HDAC) activity, A549 cells; assay: Histone deacetylation activity in total cellular extracts of treated A549 cells
Procedure: (B) Effect of Trichostatin A (TSA) on histone deacetylase activity and histone H4 acetylation. Cells were treated with increasing concentrations of TSA for 6 hrs before total cellular proteins were isolated and analysed for deacetylase activity and also histone acetylation by Western blotting using an anti-pan acetylated histone H4 antibody.
Effect of theophylline on histone deacetylase (HDAC) activity in A549 cells. (a) Cells were stimulated with LPS (3 ng/ml) for 24 hours in the presence or absence of theophylline (10^−5 M) or Dex (10^−6 M). Total cellular proteins were extracted and histone deacetylase activity measured. (b) Direct effect of theophylline on HDAC activity. […] Results are expressed as mean±SEM (n=3-5, *p<0.05, **p<0.01).

[4] = tested on: SLPI production, A549 cells; assay: SLPI production by A549 cells (ELISA); assay type: cell-based
Procedure: A549 cells were grown to 50% confluence in Dulbecco's modified medium (DMEM) containing 10% fetal calf serum (FCS) before incubation for 48-72 hr in serura-free media.
Determination of GM-CSF expression was measured by sandwich ELISA (Pharmingen, Lugano, Switzerland) according to the manufacturer's instructions. For immunoassay of SLPI and acetylated histone, polystyrene microtitre plates were coated overnight at 4° C. with sample diluted with hydroxy carbonate (pH 9.6). Plates were blocked for 2 hr with 5 % ovalbumin in PBS. Antibodies against SLPI (R&D Systems Europe, Abingdon, UK), K5, K8, K12 and K16 acetylated histone 4 (Serotec, Oxford, UK) were diluted 1:300-1:1000 and added to each plate. After 1 hr at room temperature plates were washed sequentially with 0.1% Tween20-PBS and incubated with HRP conjugated goat anti-rabbit antibody (DAKO, Cambridge, UK) for 1 hr. Detection was performed with ABTS following Pharmingen instructions. Recombinant human SLPI (R&D Systems Europe) was used as a standard. As a standard for acetylated histone, crude extracted histone from A549 cells incubated with TSA (100 ng/ml) for 6 hr was used, and the value was calculated in units, where 1 unit is equivalent to the absorbance of 50 ng of TSA-treated hyperacetylated histone after subtraction of BSA-induced histone acetylation.

[5] = tested on: histone H4 lysines K5, K8, K12, K16; assay: Immunocytochemical staining for acetylated histone H4 lysine residues; assay type: cell-based; conditions: 6 hr
Procedure: Immunocytochemical staining for specific histone H4 acetylated lysine residues. […] Results are representative of 4 independent experiments.
Cells were washed with Hanks solution, and air-dried for 30 min at RT. Cells were then fixed in ice-cold acetone-methanol (50/50, w/w) (−20° C.) for 10 min. Slides were air dried and incubated with blocking buffer (20% normal swine serum in PBS, 0.1% saponin)(Dako) for 20 mmn followed by 1 hr incubation with primary antibody solution (PBS, 0.1% saponin, 1% BSA). Antibodies against pan-acetylated H4, H4-K5, H4-K8, H4-K12 and H4-K16 (Serotec) were used at 1:100 to 1:300 dilution. Slides were washed twice and incubated with biotinylated swine anti-rabbit IgG (Dako)(1:200) for 45 min. Slides were washed again before incubation with fluorescein isothiocyante-conjugated streptavidine (1:100) for 45 min. The slides were washed twice more before counterstaining with 20% haematoxyline, and mounting. Stained cells were observed by confocal microscopy. Confocal scanning laser microscopy images were collected with a Leica confocal microscope, equipped with a 488/514 nm dual band argon ion laser. An oil-immersion objective was used and images were collected using TCSNT software.

[6] = tested on: p65-associated histone acetylation; assay: p65-immunoprecipitated histone acetylation (IP-HAT assay); assay type: cell-based
Procedure: Total cellular proteins were isolated and p65 associated proteins immunoprecipitated under stringent conditions (see methods). The associated histone acetylation activity was measured following incubation of the p65-IP extract with 10 μg free core histones and 0.25 mCi of ^3H-acetyl CoA for 45 minutes.
Histone acetylation experiments were performed as in (A) in the presence of TSA (100 ng/ml).
Extracts were prepared using 100 μl of stringent immunoprecipitation (IP) buffer (50 mM Tris-HCl, pH 8.0, 150 mM NaCl, 1.0% triton X-100, 0.5% NP-40, 0.1% SDS, 0.5% deoxycholate, complete protease inhibitor cocktail (Boehringer-Mannheim)) or mild IP buffer (10 mM Tris-HCl, pH 8.0, 150 mM NaCl, 0.5% NP-40, complete protease inhibitor cocktail (Boehringer-Mannheim)). […] After microcentrifugation, 20 μl of A/G agarose conjugated with 5 μg of antibody were used to precipitate CBP, PCAF, GR or p65 overnight at 4° C. with rotation.
Immune complexes with resin were resuspended in 150 μl of HAT buffer (50 mM Tris-HCl, pH 8.0, 10% glycerol, 1 mM dithiothreitol, 0.1 mM EDTA, complete protease inhibitor cocktail). Typically, 20 μl of free core histone solution extracted from A549 cells (final amount 10 μg) and 30 μl of immunoprecipitate were incubated. Reactions were initiated by the addition of 0.25 mCi of [^3H] acetyl-CoA (5 Ci/mmol)(Amersham) and performed for 45 min at 30° C.

CBP, PCAF = assay: CBP and PCAF expression in A549 cells (Western blot); assay type: cell-based; conditions: 10^−8 and 10^−6M, 6 hrs
Excerpt: Proteins were extracted and size fractionated by SDS-PAGE and CBP and PCAF detected by Western blotting. Results are representative of 3 independent experiments. […] Immunoreactive bands were detected by ECL.

[7] = tested on: CBP-associated HAT activity; assay: CBP-immunoprecipitated histone acetylation (IP-HAT assay); assay type: cell-based
Procedure: […]. Cells were treated as in (A) and CBP immunoprecipitated under stringent conditions (see methods). Histone acetylation was measured as in (A) and results presented as mean±sem of at least 3 independent experiments, *p<0.05.
[…]. Cells were treated as in (A) and CBP immunoprecipitated under mild conditions (see methods). Histone acetylation was measured as in (A). […] Results presented as mean±sem of at least 3 independent experiments, *p<0.05.
Extracts were prepared using 100 μl of stringent immunoprecipitation (IP) buffer (50 mM Tris-HCl, pH 8.0, 150 mM NaCl, 1.0% triton X-100, 0.5% NP-40, 0.1% SDS, 0.5% deoxycholate, complete protease inhibitor cocktail (Boehringer-Mannheim)) or mild IP buffer (10 mM Tris-HCl, pH 8.0, 150 mM NaCl, 0.5% NP-40, complete protease inhibitor cocktail (Boehringer-Mannheim)). The lysis mixture was incubated on ice for 15 min and microfuged for 10 min at 4° C. Extracts were precleared with 20 μl of A/G agarose (a 50:50 mix; Santa Cruz, Santa Cruz, Calif.) and 2 μg of normal IgG. After microcentrifugation, 20 μl of A/G agarose conjugated with 5 μg of antibody were used to precipitate CBP, PCAF, GR or p65 overnight at 4° C. with rotation. […]
IP-HAT assays were performed using a modified method of Ogryzko (Ogryzko, V. V et al (1996) Cell 87:953-959). […] The dried filters were counted in a liquid scintillation counter.

[8] = tested on: HAT activity, BAL macrophages; assay: HAT activity in BAL macrophages; conditions: rolipram 10 μM
Procedure: HAT activity (a) and HDAC activity (b) were measured as described in the methods. Results are expressed as mean±SEM (n=5).
Fibreoptic bronchoscopy and isolation of BAL macrophages: Subjects attended our bronchoscopy suite at 8.30 am after having fasted from midnight and were pretreated with atropine (0.6 mg iv) and midazolam (5-10 mg iv). Oxygen (31/min) was administered via nasal prongs throughout the procedure and oxygen saturation was monitored with a digital oximeter. Using local anaesthesia with lidocaine (4%) to the upper airways and larynx, a fibreoptic bronchoscope (Olympus BF10) was passed through the nasal passages into the trachea. Bronchoalveolar lavage (BAL) was performed from the right middle lobe using warmed 0.9% NaCl with 4 successive aliquots of 60 mls of 0.9% NaCl. […] Cytospins were prepared and stained with May-Grunwald stain for differential cell counts. Cell viability was assessed using trypan blue exclusion.
After incubation for 10 min at 37° C. cells were stimulated for 6 hr. […] Gels were stained with Coommasie brilliant blue and the core histones (H2A, H2B, H3 and H4) excised. The radioactivity in extracted core histones was determined by liquid scintillation counting and normalised to protein level.

[9] = tested on: HDAC activity, BAL macrophages; assay: HDAC activity in BAL macrophages; assay type: cell-based, human; conditions: 24 hours, rolipram 10 μM

Compound: OO [H2O2]
GM-CSF release, IL-1β plus H2O2 ([1]; A549 cells): 2054 ± 342 pg/mL

Compound: CC(C)Cn1c(=O)n(C)c(=O)c2[nH]cnc21 [IBMX]
direct effect on HDAC activity (HDAC activity): no direct effect | direct effect on HAT activity (HAT activity): no direct effect

Compound: COc1cccc(-c2cc(=O)c3ccccc3o2)c1N [PD089059]
effect on theophylline-induced increased HDAC activity (HDAC activity): failed to have any effect

Compound: C[S+]([O-])c1ccc(-c2nc(-c3ccncc3)c(-c3ccc(F)cc3)[nH]2)cc1 (centres unmarked) [SB203580]
effect on theophylline-induced increased HDAC activity (HDAC activity): significantly inhibited

IC50, decrease in HDAC activity ([3]; A549 cells, 6 hrs): 1.1 ng/mL (≈ 3.64 nM)
Compound: CC(/C=C/C(=O)NO)=C\[C@@H](C)C(=O)c1ccc(N(C)C)cc1 [TSA, trichostatin A]
basal histone acetylation with TSA ([2]; TSA 1 ng/ml): 162±21 dpm/μg protein | dexamethasone-induced histone acetylation with TSA ([2]; TSA 1 ng/ml, versus 71±9): 984±50 dpm/μg protein | IL-1β-stimulated histone acetylation with TSA ([2]; TSA 1 ng/ml, versus 137±15): 1543±143 dpm/μg protein | IL-1β plus dexamethasone (10^−10 M)-stimulated histone acetylation with TSA ([2]; TSA 100 ng/ml, versus 37±5): 435±28 dpm/μg protein | IL-1β-stimulated histone acetylation with TSA ([2]; TSA 100 ng/ml, versus 71±9): 1543±143 dpm/μg protein | HDAC activity in A549 cells ([3]; TSA, increasing concentrations, 6 hrs, decrease from 112±21): 11±3 dpm/ng protein | IL-1β-induced GM-CSF release ([1]; IL-1β 1 ng/ml plus TSA 1 ng/ml, versus 157±6 without TSA): 233 ± 12 ng/mL | effect of TSA on dexamethasone (10^−6 M) suppression of GM-CSF release ([1]; IL-1β plus H2O2): unable to block | effect of TSA on suppression of GM-CSF release by combined treatment ([1]; IL-1β plus H2O2): blocked | effect of TSA pre-treatment on repression of GM-CSF release by combined treatment ([1]; IL-1β-stimulated): blocked | GM-CSF release in the presence of TSA ([1]; IL-1β-stimulated, with or without dexamethasone 10^−6 M): 969 ± 84 pg/mL | SLPI production ([4]; IL-1β 1 ng/ml after pretreatment with TSA 1 ng/ml, versus 6.0±0.5): 8.2 ± 0.3 ng/mL

EC50 ([4]; Homo sapiens, A549, read-out: EC50, induction of SLPI): 9 nM | IC50, p65-associated IL-1β-induced histone acetylation [6]: 0.4 nM | IC50, p65-associated histone acetylation in the presence of TSA ([6]; TSA 100 ng/ml): 90 nM | IC50 ([7]; CBP immunoprecipitated under stringent IP conditions, read-out: IC50, IL-1β-stimulated CBP-dependent histone acetylation): 8 nM | IC50, IL-1β-induced CBP-associated histone acetylation ([7]; CBP isolated under mild IP conditions): 0.04 nM
Compound: C[C@@H]1C[C@H]2[C@@H]3CCC4=CC(=O)C=C[C@]4(C)[C@@]3(F)[C@@H](O)C[C@]2(C)[C@@]1(O)C(=O)CO [dexamethasone]
concentration giving maximum induction of histone acetylation ([2]; between 4-8 hr): ≥ 10^−8 M | basal histone acetylation ([2]; dexamethasone 10^−10 M alone, no effect): 23.7±4.1 dpm/μg protein | IL-1β plus dexamethasone-stimulated histone acetylation ([2]; dexamethasone 10^−10 M, no TSA): 37±5 dpm/μg protein | dexamethasone-induced histone acetylation ([2]; without TSA): 71±9 dpm/μg protein | total cell HDAC activity after IL-1β plus H2O2 ([3]; 4 hrs, theophylline pre-treatment 10^−5 M, 10 min): no effect | acetylated histone H4 K5 [5]: 53±9 % positive nuclei | acetylated histone H4 K16 [5]: 36±16 % positive nuclei | concentration of maximum SLPI induction ([4]; dexamethasone alone): 1 µM | CBP or PCAF expression (CBP, PCAF): no effect

Compound: COc1ccc(C2CNC(=O)C2)cc1OC1CCCC1 (centres unmarked) [rolipram]
HAT activity [8]: no effect | direct effect on HDAC activity (HDAC activity): no direct effect | HDAC activity [9]: no effect | direct effect on HAT activity (HAT activity): no direct effect

Compound: IL-1β: interleukin used to stimulate A549 cells (1 ng/ml)
histone acetylation, IL-1β alone ([2]; IL-1β 1 ng/ml, whole cell incorporation): 137±15 dpm/μg protein and 71±9 dpm/μg protein | histone acetylation 30 min after IL-1β-stimulation ([2]; versus 18±4): 41±6 dpm/μg protein | increase in histone acetylation ([2]; whole cell): 4-5 fold and 4 fold | IL-1β-stimulated GM-CSF release ([1]; A549 cells): 714 ± 94 pg/mL | increase in GM-CSF release ([1]; IL-1β 1 ng/ml): 30 fold | GM-CSF within the culture supernatant ([1]; IL-1β 1 ng/ml, 6 hr, untreated cells 30±10): 157 ± 6 ng/mL | acetylated histone H4 K8 [5]: 42±15 % positive nuclei | acetylated histone H4 K12 [5]: 37±4 % positive nuclei | SLPI production ([4]; IL-1β 1 ng/ml, versus 1.2±0.3 control): 6.0 ± 0.5 ng/mL | increase of p65-immunoprecipitated histone acetylation ([6]; IL-1β stimulation): 9-10 fold

Compound: lipopolysaccharide [LPS]
reduction of total cell HDAC activity ([3]; LPS, 6 hrs): 30%

From patent US20030134865A1, “Modulation of histone deacetylase” (priority 2003, published 2003)
